# Numbers after ± are expanded uncertainties.
# Assay: mn = molality of the nth substance listed, in mol/kg
# Conditions: Liquid, Vibrating tube method
smiles,measurement,setting,value
NCC(=O)[O-].[K+] [potassium glycinate] + O,mass density,"293 K, 101 kPa, m1 = 0.99",1065 ± 53 kg/m3
same,mass density,"293 K, 101 kPa, m1 = 1.78",1130 ± 58 kg/m3
same,mass density,"298 K, 101 kPa, m1 = 0.99",1064 ± 53 kg/m3
same,mass density,"298 K, 101 kPa, m1 = 1.78",1128 ± 57 kg/m3
same,mass density,"303 K, 101 kPa, m1 = 0.99",1062 ± 53 kg/m3
same,mass density,"303 K, 101 kPa, m1 = 1.78",1126 ± 57 kg/m3
same,mass density,"308 K, 101 kPa, m1 = 0.99",1060 ± 53 kg/m3
same,mass density,"308 K, 101 kPa, m1 = 1.78",1124 ± 57 kg/m3
same,mass density,"313 K, 101 kPa, m1 = 0.99",1058 ± 53 kg/m3
same,mass density,"313 K, 101 kPa, m1 = 1.78",1121 ± 57 kg/m3
same,mass density,"318 K, 101 kPa, m1 = 0.99",1056 ± 53 kg/m3
same,mass density,"318 K, 101 kPa, m1 = 1.78",1119 ± 57 kg/m3
same,mass density,"323 K, 101 kPa, m1 = 0.99",1053 ± 53 kg/m3
same,mass density,"323 K, 101 kPa, m1 = 1.78",1116 ± 57 kg/m3
same,mass density,"328 K, 101 kPa, m1 = 0.99",1051 ± 53 kg/m3
same,mass density,"328 K, 101 kPa, m1 = 1.78",1114 ± 57 kg/m3
same,mass density,"333 K, 101 kPa, m1 = 0.99",1048 ± 52 kg/m3
same,mass density,"333 K, 101 kPa, m1 = 1.78",1111 ± 57 kg/m3
same,mass density,"338 K, 101 kPa, m1 = 0.99",1045 ± 52 kg/m3
same,mass density,"338 K, 101 kPa, m1 = 1.78",1108 ± 56 kg/m3
same,mass density,"343 K, 101 kPa, m1 = 0.99",1042 ± 52 kg/m3
same,mass density,"343 K, 101 kPa, m1 = 1.78",1105 ± 56 kg/m3
same,mass density,"348 K, 101 kPa, m1 = 0.99",1039 ± 52 kg/m3
same,mass density,"348 K, 101 kPa, m1 = 1.78",1102 ± 56 kg/m3
same,mass density,"353 K, 101 kPa, m1 = 0.99",1036 ± 52 kg/m3
same,mass density,"353 K, 101 kPa, m1 = 1.78",1099 ± 56 kg/m3
same,mass density,"358 K, 101 kPa, m1 = 0.99",1033 ± 52 kg/m3
same,mass density,"358 K, 101 kPa, m1 = 1.78",1096 ± 56 kg/m3
same,mass density,"363 K, 101 kPa, m1 = 0.99",1030 ± 52 kg/m3
same,mass density,"363 K, 101 kPa, m1 = 1.78",1093 ± 56 kg/m3
same,mass density,"373 K, 101 kPa, m1 = 0.99",1023 ± 51 kg/m3
same,mass density,"373 K, 101 kPa, m1 = 1.78",1086 ± 55 kg/m3
same,mass density,"393 K, 101 kPa, m1 = 0.99",1007 ± 50 kg/m3
NCCS(=O)(=O)[O-].[K+] [potassium taurate] + O,mass density,"283 K, m1 = 0.89",1084 ± 54 kg/m3
same,mass density,"288 K, m1 = 0.89",1083 ± 54 kg/m3
same,mass density,"293 K, m1 = 0.89",1081 ± 54 kg/m3
same,mass density,"293 K, m1 = 1.6",1145 ± 58 kg/m3
same,mass density,"298 K, m1 = 0.89",1079 ± 54 kg/m3
same,mass density,"298 K, m1 = 1.6",1143 ± 58 kg/m3
same,mass density,"303 K, m1 = 0.89",1078 ± 54 kg/m3
same,mass density,"303 K, m1 = 1.6",1141 ± 58 kg/m3
same,mass density,"308 K, m1 = 0.89",1076 ± 54 kg/m3
same,mass density,"308 K, m1 = 1.6",1139 ± 58 kg/m3
same,mass density,"313 K, m1 = 0.89",1073 ± 54 kg/m3
same,mass density,"313 K, m1 = 1.6",1136 ± 58 kg/m3
same,mass density,"318 K, m1 = 0.89",1071 ± 54 kg/m3
same,mass density,"318 K, m1 = 1.6",1134 ± 58 kg/m3
same,mass density,"323 K, m1 = 0.89",1069 ± 53 kg/m3
same,mass density,"323 K, m1 = 1.6",1131 ± 58 kg/m3
same,mass density,"328 K, m1 = 0.89",1066 ± 53 kg/m3
same,mass density,"328 K, m1 = 1.6",1129 ± 57 kg/m3
same,mass density,"333 K, m1 = 0.89",1064 ± 53 kg/m3
same,mass density,"333 K, m1 = 1.6",1126 ± 57 kg/m3
same,mass density,"338 K, m1 = 0.89",1061 ± 53 kg/m3
same,mass density,"338 K, m1 = 1.6",1123 ± 57 kg/m3
same,mass density,"343 K, m1 = 0.89",1058 ± 53 kg/m3
same,mass density,"343 K, m1 = 1.6",1120 ± 57 kg/m3
same,mass density,"348 K, m1 = 1.6",1117 ± 56 kg/m3
same,mass density,"353 K, m1 = 0.89",1051 ± 53 kg/m3
same,mass density,"353 K, m1 = 1.6",1114 ± 57 kg/m3
same,mass density,"358 K, m1 = 1.6",1111 ± 56 kg/m3
same,mass density,"363 K, m1 = 1.6",1108 ± 56 kg/m3
same,mass density,"373 K, m1 = 0.89",1037 ± 52 kg/m3
same,mass density,"373 K, m1 = 1.6",1101 ± 56 kg/m3
same,mass density,"393 K, m1 = 0.89",1021 ± 51 kg/m3
same,mass density,"393 K, m1 = 1.6",1086 ± 55 kg/m3
